Consider three molecules from paper PMC6563616, “Thymine DNA glycosylase as a novel target for melanoma” (Oncogene, 2019).

The target of assay [1] is T1, thymine DNA glycosylase (TDG) (Homo sapiens, UniProt Q13569). Nature of the assay: molecular beacon screen with recombinant TDG, confirmed in radioactive DNA glycosylase assay. Type of assay: biochemical.
Assay [2] addresses T1, thymine DNA glycosylase (TDG). As to the kind of experiment: radioactive DNA glycosylase assay with purified recombinant TDG; TDG/APE1 molecular beacon assay (dose-dependent); 5caC increase in cells. Type of assay: biochemical.

The structures appear in SMILES notation.

T1 sequence (Q13569 whole entry): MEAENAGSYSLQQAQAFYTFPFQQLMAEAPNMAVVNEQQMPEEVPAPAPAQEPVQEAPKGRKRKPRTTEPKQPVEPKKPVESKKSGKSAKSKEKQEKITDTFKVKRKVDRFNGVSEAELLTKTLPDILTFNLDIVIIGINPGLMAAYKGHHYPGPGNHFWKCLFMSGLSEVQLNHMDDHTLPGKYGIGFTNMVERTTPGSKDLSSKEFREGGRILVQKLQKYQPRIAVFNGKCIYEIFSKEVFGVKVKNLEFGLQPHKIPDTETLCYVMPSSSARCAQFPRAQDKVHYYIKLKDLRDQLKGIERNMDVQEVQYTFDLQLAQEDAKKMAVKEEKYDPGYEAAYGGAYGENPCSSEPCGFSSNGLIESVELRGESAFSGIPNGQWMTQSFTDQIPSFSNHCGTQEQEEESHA

For `C=CC1=C(C(=O)O)N2C(=O)[C@@H](NC(=O)/C(=N\OCC(=O)O)c3csc(N)n3)[C@H]2SC1` [cefixime], the “molecular beacon screen with recombinant TDG, confirmed in radioactive DNA glyco” value in assay [1] is “including closantel, juglone, and cefixime, were confirmed as TDG inhibitors in a standard, radioactive DNA glycosylase assay”.
`Cc1cc(C(C#N)c2ccc(Cl)cc2)c(Cl)cc1NC(=O)c1cc(I)cc(I)c1O` (stereo not drawn) [closantel]: the “radioactive DNA glycosylase assay with purified recombinant TDG; TDG/APE1 molecu” value in assay [2] is “including closantel, juglone, and cefixime, were confirmed as TDG inhibitors in a standard, radioactive DNA glycosylase assay”.
The same measure, in the same setting: then `O=C1C=CC(=O)c2c(O)cccc21` [juglone], with “including closantel, juglone, and cefixime, were confirmed as TDG inhibitors in a standard, radioactive DNA glycosylase assay”.
